From ChEMBL document CHEMBL1143263, “HY253, a novel compound isolated from Aralia continentalis, induces apoptosis via cytochrome c-mediated intrinsic pathway in HeLa cells” (Bioorg Med Chem Lett, 2009) come the findings set out here.

The structures appear in SMILES notation. Activity calls are given as the source filed them. The rule behind the calls is not given here.

Broadly, the IC50 is the concentration that inhibits the measured activity by half. High values mean lower potency, low ones higher potency.

Holding throughout (type): functional, cell-based
Assay [1] deals with HeLa. As to the kind of experiment: Induction of apoptosis in human HeLa cells at 100 uM after 48 hrs by TUNEL assay.
The test system of assay [2] is HeLa. As to the kind of experiment: Induction of apoptosis in human HeLa cells assessed as caspase-9 activation at 100 uM by Western blot. On the technique in general: In western blotting, separated proteins are transferred to a membrane and probed.
The test system of assay [3] is HeLa. Briefly: Induction of apoptosis in human HeLa cells assessed as PARP cleavage at 100 uM by Western blot.
Assay [4] relates to HeLa. Briefly: Induction of apoptosis in human HeLa cells at 100 uM after 24 hrs by TUNEL assay.
The subject of assay [5] is HeLa. As to the kind of experiment: Induction of apoptosis in human HeLa cells assessed as increase in pro-apoptotic Bax protein at 100 uM after 24 hrs by Western blot.
In assay [6] the test system is HeLa. Briefly: Induction of apoptosis in human HeLa cells assessed as cytochrome C release from mitochondria at 100 uM after 24 hrs by confocal microscopy.
The test system of assay [7] is HeLa. Briefly: Induction of apoptosis in human HeLa cells assessed as increase in pro-apoptotic Bak protein at 100 uM after 24 hrs by Western blot.
Assay [8] relates to HeLa. Briefly: Induction of apoptosis in human HeLa cells assessed as fragmented apoptotic bodies at 100 uM after 24 hrs by DAPI staining.
Assay [9] has as its system HeLa. Briefly: Induction of apoptosis in human HeLa cells assessed as caspase-3 activation at 100 uM by Western blot.
Assay [10] concerns HeLa. As to the kind of experiment: Antiproliferative activity against human HeLa cells after 48 hrs by MTT assay. (In general: Formazan colour is commonly taken as a measure of viable cells.)
For assay [11], the system named is HeLa. Briefly: Induction of apoptosis in human HeLa cells assessed as caspase-8 activation at 100 uM by Western blot.

On to `C=CC1CCC2(O)C(C=C)(C1)CC1(O)CC(O)C=CC12O` (configuration not stated), for which the outcome in [1], in assay [2], in assay [3], in assay [4], in assay [5] and in [6] was Active. The result in [7], in [8], in assay [9] and in assay [11] was Active. Also, the Activity result in assay [10] is “Dose-dependent effect”. Inhibition in assay [10] was half-maximal at 81.5 µM (IC50).
